Key:
[1] = target: T1, MAPKAPK2 Recombinant Human Protein (Homo sapiens, UniProt P49137); test: MK2 kinase assay (Z'-LYTE kinase assay kit); conditions: inhibition of MK2 biochemical activity; 90 min incubation at room temperature
T1 construct: purchased ThermoFisher pv3317
Procedure: Materials and Reagents for Measuring Inhibition of MK2 Biochemical Activity: • 1) Assay plate: 384 Well Low Volume Black Round Bottom Polystyrene NBS Microplate (Corning, Cat.No. 4514) • 2) MK2 kinase assay kit: Z' LYTE KINASE ASSAY KIT (ThermoFisher, Cat.No. pv3177) • 3) MAPKAPK2 Recombinant Human Protein (ThermoFisher, Cat.No. pv3317) • 4) DMSO (Vetec, Cat.No. V900090) • 5) DTT (Sigma, Cat.No. D0632)
MK2 Kinase Assay Procedure: • 1) Dispense 5 μl Kinase/Peptide Mixture to each wells of 384-well plate • 2) Add 2.5 μl 4× Test Compound to each well • 3) Add 2.5 μl 4× ATP Solution to each well • 4) After 90 minutes incubation at room temperature, add 5 μl Development Solution to each well • 5) After 60 minutes incubation at room temperature, add 5 μl stop Solution to each well • 6) Measure the Coumarin (Ex. 400 nm, Em. 445 nm) and Fluorescein (Ex. 400 nm, Em. 520 nm) emission signals on an Envision plate reader (PerkinElmer)

THP-1 cells = test: THP-1 cell assay: LPS-stimulated pSer78-Hsp27 ELISA; format: cell-based; conditions: Homo sapiens, PMA-differentiated THP-1 cells, compound 60 min before 20 ng/mL LPS for 30 min
Description: Materials and Reagents for Measuring Activity in THP-1 Cells: • 1) THP-1 cells (Cell bank of Shanghai) • 2) PMA (Sigma, Cat.No. P1585) • 3) LPS (Sigma, Cat.No. L4516) • 4) 96-well tissue-culture treated plate (Grenier, Cat.No. 655180) • 5) FBS (Thermofisher, Cat.No. 10100147) • 6) Complete EDTA-free protease inhibitor Cocktail (Roche, Cat.No. 4693132001) • 7) PhosSTOP (Roche, Cat.No. 4906845001) • 8) Phosphor-Hsp27 (Ser78) Sandwich Elisa kit (CST, Cat.No. 7295)
Cell Assay Procedure: • 1) Day 0: THP-1 cells are seeded at 50K/well in complete media (1640+10% FBS+50 μM β-ME)+20 ng/mL PMA in 96-well plate • 2) Day 1: PMA containing media is removed after 24 h incubation (37° C./5% CO2), and replaced with complete growth media. Cells are incubated an additional 48 h to recover. • 3) Day 3: Cells are incubated with or without compounds at indicated concentrations for 60 min, prior to addition of 20 ng/mL LPS. Cells are stimulated for 30 min with LPS, washed 1× with ice cold PBS, lysed on ice in Lysis buffer provided in ELISA kit with Roche protease & phosphatase inhibitors. Extracts are clarified by refrigerated centrifugation & stored at −80° C. until pHsp27/total Hsp27 ELISAs • 4) Day 3 or Day 4: Cell Signaling Technology ELISA is run for pSer78-Hsp27 on lysates diluted to approximately 2.5 μg/well. • 5) The absorbance at 450 nm was read in a SpectraMax plus plate reader (Molecular Devices). Data was processed using GraphPad prism 8.0.

T1 sequence (P49137 whole entry): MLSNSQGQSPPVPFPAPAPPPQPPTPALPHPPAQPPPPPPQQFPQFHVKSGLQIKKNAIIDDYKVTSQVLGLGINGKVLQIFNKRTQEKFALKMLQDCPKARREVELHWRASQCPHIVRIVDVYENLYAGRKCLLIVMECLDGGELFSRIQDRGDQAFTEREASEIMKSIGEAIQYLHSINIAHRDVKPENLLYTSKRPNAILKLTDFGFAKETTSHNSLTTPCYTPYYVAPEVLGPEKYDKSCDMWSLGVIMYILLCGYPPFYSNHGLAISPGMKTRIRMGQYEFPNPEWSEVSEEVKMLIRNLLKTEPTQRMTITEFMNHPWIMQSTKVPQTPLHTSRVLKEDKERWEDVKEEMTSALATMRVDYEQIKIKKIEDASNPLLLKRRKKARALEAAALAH

Row | IC50 [1] [nM] | IC50 (THP-1 cells) [nM] | SMILES
1 | < 50 | < 50 | CC(C)(C1CC(=O)N(c2ccc3c(c2)Cn2cc(-c4ccc(C#N)cc4)cc2-c2nccn2-3)C1)N1CCC1 (stereo not shown) [Example 55, 4-(7-(4-(2-(Azetidin-1-yl)propan-2-yl)-2-oxopyrrolidin-1-yl)-9H-benzo[e]imidazo[2,1-c]pyrrolo[1,2-a][1,4]diazepin-12-yl)benzonitrile]
2 | 50 to 100 |  | N#Cc1ccc(-c2cc3n(c2)Cc2cc(N4CC(C5(CO)COC(=O)N5)CC4=O)ccc2-n2ccnc2-3)cc1 (stereo not shown) [Example 63, 4-(7-(4-(4-(Hydroxymethyl)-2-oxooxazolidin-4-yl)-2-oxopyrrolidin-1-yl)-9H-benzo[e]imidazo[2,1-c]pyrrolo[1,2-a][1,4]diazepin-12-yl)benzonitrile]
3 | 50 to 100 |  | C[N+](C)(C)C[C@H]1CC(=O)N(c2ccc3c(c2)Cn2cc(-c4ccc(C#N)cc4)cc2-c2nccn2-3)C1 [Example 18, (S)-1-(1-(12-(4-cyanophenyl)-9H-benzo[e]imidazo[2,1-c]pyrrolo[1,2-a][1,4]diazepin-7-yl)-5-oxopyrrolidin-3-yl)-N,N,N-trimethylmethanaminium iodide]
4 | < 50 |  | CC(C)(N)[C@H]1CC(=O)N(c2ccc3c(c2)Cn2cc(-c4ccc(C#N)cc4)cc2-c2nccn2-3)C1 [Example 52]
5 | 100 to 200 |  | N#Cc1ccc(-c2cc3n(c2)Cc2cc(C(=O)NCCN4CCC4)ccc2-n2ccnc2-3)cc1 [Example 118]
6 | 200 to 300 |  | CN(C)C[C@H]1CCCN1C(=O)c1ccc2c(c1)Cn1cc(-c3ccc(C#N)cc3)cc1-c1nccn1-2 [Example 113]
7 | 50 to 100 |  | CC(C)(N)C1CCN(c2ccc3c(c2)Cn2cc(-c4ccc(C#N)cc4)cc2-c2nccn2-3)C1=O (stereo not shown) [Example 44, 4-(7-(3-(2-Aminopropan-2-yl)-2-oxopyrrolidin-1-yl)-9H-benzo[e]imidazo [2,1-c]pyrrolo[1,2-a][1,4]diazepin-12-yl)benzonitrile]
8 | 50 to 100 |  | CN1CC(C)(CNC(=O)c2ccc3c(c2)Cn2cc(-c4ccc(C#N)cc4)cc2-c2nccn2-3)C1 [Example 121]
9 | < 50 |  | [2H]C([2H])([2H])N(C([2H])([2H])[2H])C([2H])([2H])C1CCN(c2ccc3c(c2)Cn2cc(-c4ccc(C#N)cc4)cc2-c2nccn2-3)C1=O (stereo not shown) [Example 38, 4-(7-(3-((Dideuteratedmethylamino)deuteratedmethyl)-2-oxopyrrolidin-1-yl)-9H-benzo[e]imidazo[2,1-c]pyrrolo[1,2-a][1,4]diazepin-12-yl)benzonitrile]
10 | 50 to 100 |  | Cc1nnc2n1-c1ccc(N3C[C@@H](CN(C)C)OC3=O)cc1Cn1cc(-c3ccc(C#N)cc3)cc1-2 [Example 83]
11 | 200 to 300 |  | CC(C)(N)CNC(=O)c1ccc2c(c1)Cn1cc(-c3ccc(C#N)cc3)cc1-c1nccn1-2 [Example 111]
12 |  | 200 to 300 | CNC[C@@H]1CCN1C(=O)c1ccc2c(c1)Cn1cc(-c3ccc(C#N)cc3)cc1-c1nccn1-2 [Example 137, (S)-4-(7-(2-((Methylamino)methyl)azetidine-1-carbonyl)-9H-benzo[e]imidazo [2,1-c]pyrrolo[1,2-a][1,4]diazepin-12-yl)benzonitrile]
13 | < 50 |  | CC(C)(N)C1CC(=O)N(c2ccc3c(c2)Cn2cc(-c4ccc(C#N)cc4)cc2-c2nccn2-3)C1 (stereo not shown) [Example 51]
14 | 200 to 300 |  | CN1CCN(C(=O)c2ccc3c(c2)Cn2cc(-c4ccc(C#N)cc4)cc2-c2nccn2-3)CC1 [Example 107]
15 | 100 to 200 |  | CN(C)CC1(C)CCN(c2ccc3c(c2)Cn2cc(-c4ccc(C#N)cc4)cc2-c2nccn2-3)C1=O (stereo not shown) [Example 39, 4-(7-(3-((Dimethylamino)methyl)-3-methyl-2-oxopyrrolidin-1-yl)-9H-benzo[e]imidazo[2,1-c]pyrrolo[1,2-a][1,4]diazepin-12-yl)benzonitrile]
16 | < 50 |  | CN(C)CCC1CCN(c2ccc3c(c2)Cn2cc(-c4ccc(C#N)cc4)cc2-c2nccn2-3)C1=O (stereo not shown) [Example 40, 4-(7-(3-(2-(Dimethylamino)ethyl)-2-oxopyrrolidin-1-yl)-9H-benzo[e]imidazo [2,1-c]pyrrolo[1,2-a][1,4]diazepin-12-yl)benzonitrile]
17 | 50 to 100 |  | N#Cc1ccc(-c2cc3n(c2)Cc2cc(N4C[C@H](CO)NCC4=O)ccc2-n2ccnc2-3)cc1 [Example 80, (R)-4-(7-(5-(Hydroxymethyl)-2-oxopiperazin-1-yl)-9H-benzo[e]imidazo[2,1-c]pyrrolo[1,2-a][1,4]diazepin-12-yl)benzonitrile]

Row | IC50 [1] [nM] | IC50 (THP-1 cells) [nM] | SMILES
18 | 200 to 300 |  | Cc1nnc2n1CCN(C(=O)c1ccc3c(c1)Cn1cc(-c4ccc(C#N)cc4)cc1-c1nccn1-3)C2 [Example 108]
19 | 200 to 300 |  | CN[C@H]1CC[C@H](N(C)C(=O)c2ccc3c(c2)Cn2cc(-c4ccc(C#N)cc4)cc2-c2nccn2-3)C1 [Example 133]
20 | 50 to 100 |  | CN(C)C1CCC(C(=O)Nc2ccc3c(c2)Cn2cc(-c4ccc(C#N)cc4)cc2-c2nccn2-3)C1 (stereo not shown) [Example 78]
21 | 50 to 100 |  | N#Cc1ccc(-c2cc3n(c2)Cc2cc(N4CCN(C5CC5)CC4=O)ccc2-n2ccnc2-3)cc1 [Example 31, 4-(7-(4-Cyclopropyl-2-oxopiperazin-1-yl)-9H-benzo[e]imidazo[2,1-c]pyrrolo [1,2-a][1,4]diazepin-12-yl)benzonitrile]
22 | < 50 |  | CN1CCN2C(=O)N(c3ccc4c(c3)Cn3cc(-c5ccc(C#N)cc5)cc3-c3nccn3-4)C[C@H]2C1 [Example 60, (R)-4-(7-(7-Methyl-3-oxohexahydroimidazo[1,5-a]pyrazin-2(3H)-yl)-9H-benzo[e]imidazo[2,1-c]pyrrolo[1,2-a][1,4]diazepin-12-yl)benzonitrile]
23 | 200 to 300 |  | CN(C)C1CCN(C(=O)c2ccc3c(c2)Cn2cc(-c4ccc(C#N)cc4)cc2-c2nccn2-3)C1 (stereo not shown) [Example 103]
24 | < 50 |  | CC1(C2CC(=O)N(c3ccc4c(c3)Cn3cc(-c5ccc(C#N)cc5)cc3-c3nccn3-4)C2)CCN1 (stereo not shown) [Example 62, 4-(7-(4-(2-methylazetidin-2-yl)-2-oxopyrrolidin-1-yl)-9H-benzo[e]imidazo[2,1-c]pyrrolo[1,2-a][1,4]diazepin-12-yl)benzonitrile]
25 | 50 to 100 |  | Cc1nnc2n1-c1ccc(N3CCC(CN(C)C)C3=O)cc1Cn1cc(-c3ccc(C#N)cc3)cc1-2 (stereo not shown) [Example 84]
26 |  | < 50 | [2H]C([2H])([2H])N(C[C@@H]1CCN1C(=O)c1ccc2c(c1)Cn1cc(-c3ccc(C#N)cc3)cc1-c1nccn1-2)C([2H])([2H])[2H] [Example 120, (S)-4-(7-(2-((Bis(methyl-d3)amino)methyl)azetidine-1-carbonyl)-9H-benzo[e]imidazo[2,1-c]pyrrolo[1,2-a][1,4]diazepin-12-yl)benzonitrile]
27 | 50 to 100 |  | CN(CC(CN)CO)C(=O)c1ccc2c(c1)Cn1cc(-c3ccc(C#N)cc3)cc1-c1nccn1-2 (stereo not shown) [Example 136]
28 | 100 to 200 |  | CN(C)CC(C)(C)NC(=O)c1ccc2c(c1)Cn1cc(-c3ccc(C#N)cc3)cc1-c1nccn1-2 [Example 130]
29 | 50 to 100 |  | CN(C)C[C@@H]1[C@@H]2CN(c3ccc4c(c3)Cn3cc(-c5ccc(C#N)cc5)cc3-c3nccn3-4)C(=O)[C@H]12 [Example 45, 4-(7-((1R,5S,6R)-6-((Dimethylamino)methyl)-2-oxo-3-azabicyclo[3.1.0]hexan-3-yl)-9H-benzo[e]imidazo[2,1-c]pyrrolo[1,2-a][1,4]diazepin-12-yl)benzonitrile]
30 | 300 to 400 |  | CN(C)[C@H]1CC[C@H](NC(=O)c2ccc3c(c2)Cn2cc(-c4ccc(C#N)cc4)cc2-c2nccn2-3)C1 [Example 122]
31 | 50 to 100 |  | CN(C)[C@H]1CCCN(C(=O)c2ccc3c(c2)Cn2cc(-c4ccc(C#N)cc4)cc2-c2nccn2-3)C1 [Example 125]
32 | 50 to 100 |  | Cc1nnc2n1-c1ccc(N3CCC(CCN(C)C)C3=O)cc1Cn1cc(-c3ccc(C#N)cc3)cc1-2 (stereo not shown) [Example 81, 4-(7-(3-(2-(Dimethylamino)ethyl)-2-oxopyrrolidin-1-yl)-3-methyl-9H-benzo[e]pyrrolo[1,2-a][1,2,4]triazolo[3,4-c][1,4]diazepin-12-yl)benzonitrile]
33 | < 50 |  | Cc1nnc2n1-c1ccc(N3CCN(CCN(C)C)C3=O)cc1Cn1cc(-c3ccc(C#N)cc3)cc1-2 [Example 85]

From US20240140958A1, “FUSED QUADRACYCLIC COMPOUNDS, COMPOSITIONS AND USES THEREOF” (Tabomedex Biosciences, Inc., priority 2021, published 2024)
